Values quoted from earlier work, collected in publication PMC8227856, “Antibacterial Activity of a Promising Antibacterial Agent: 22-(4-(2-(4-Nitrophenyl-piperazin-1-yl)-acetyl)-piperazin-1-yl)-22-deoxypleuromutilin” (Molecules, 2021).

Parameters: method as in PMID 25812151
Details: mice, oral acute toxicity; cited from earlier work

## C=C[C@]1(C)C[C@@H](OC(=O)CSc2nnc(N)s2)[C@]2(C)[C@H](C)CC[C@]3(CCC(=O)[C@H]32)[C@@H](C)[C@@H]1O [ATTM, 14-O-[(2-Amino-1,3,4-thiadiazol-5-yl)Thioacetyl] Mutilin]
  LD50: 2304.4 mg/kg
